{"source": "ChEMBL document CHEMBL5614418", "about": "“Discovery of novel dihydropyrrolidone-thiadiazole compound crosstalk between the YycG/F two-component regulatory pathway and cell membrane homeostasis to combat methicillin-resistant Staphylococcus aureus” (Eur J Med Chem, 2024)", "key": {"[1]": {"tested_on": "Staphylococcus epidermidis", "experiment": "Bactericidal activity against Staphylococcus epidermidis SE1457", "type": "functional"}, "[2]": {"tested_on": "Acinetobacter baumannii", "experiment": "Antibacterial activity against Acinetobacter baumannii", "type": "functional, organism-based"}, "[3]": {"target": "T1, Sensor protein kinase WalK (Staphylococcus aureus, UniProt Q9RDT3)", "T1 sequence (Q9RDT3 whole entry)": "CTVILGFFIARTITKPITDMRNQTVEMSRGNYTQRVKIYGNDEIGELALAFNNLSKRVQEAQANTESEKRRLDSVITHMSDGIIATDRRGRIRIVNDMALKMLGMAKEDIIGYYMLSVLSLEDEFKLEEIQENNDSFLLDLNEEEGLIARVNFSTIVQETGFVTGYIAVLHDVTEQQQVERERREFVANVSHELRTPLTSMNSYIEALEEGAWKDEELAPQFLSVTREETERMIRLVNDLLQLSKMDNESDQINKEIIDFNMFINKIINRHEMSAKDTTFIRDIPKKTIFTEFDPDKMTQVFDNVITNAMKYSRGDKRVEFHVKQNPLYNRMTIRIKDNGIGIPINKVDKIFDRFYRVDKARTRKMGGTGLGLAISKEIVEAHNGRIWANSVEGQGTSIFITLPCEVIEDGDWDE", "experiment": "Inhibition of Staphylococcus aureus YycG expressed in Escherichia coli preincubated for 30 mins followed by ATP addition and measured after 30 mins by kinase-Glo luminescent assay"}, "[4]": {"tested_on": "Staphylococcus epidermidis", "experiment": "Synergistic antibacterial activity against Staphylococcus epidermidis SE1457 in presence of vancomycin", "type": "functional, organism-based"}, "[5]": {"experiment": "Cytotoxicity against human LX2 cells incubated for 24 hrs by CCK8 assay", "type": "toxicity, cell-based", "details": "LX-2 cells"}, "[6]": {"tested_on": "Enterococcus faecalis", "experiment": "Antibacterial activity against Enterococcus faecalis OG1RF by broth microdilution method", "type": "functional"}, "[7]": {"tested_on": "Staphylococcus epidermidis", "experiment": "Antibacterial activity against methicillin resistant Staphylococcus epidermidis SE1457 infected in BALB/c mouse wound model assessed as log reduction in wound bacterial load at 20 mg/kg, ip administered every 12 hrs for 3 times and measured after 48 hrs", "type": "functional"}, "[8]": {"tested_on": "Staphylococcus epidermidis", "experiment": "Antibacterial activity against Staphylococcus epidermidis SE1457 in presence of oleic acid", "type": "functional, organism-based"}, "[9]": {"tested_on": "Staphylococcus aureus", "experiment": "Inhibition of bacterial growth in methicillin resistant Staphylococcus aureus USA300 at MIC concentration measured upto 16 hrs", "type": "functional"}, "[10]": {"tested_on": "Staphylococcus aureus", "experiment": "Downregulation of arcC2 expression level in methicillin sensitive Staphylococcus aureus SA113 at 1/2 MIC incubated for 2 hrs by MS/MS analysis", "type": "functional"}, "[11]": {"tested_on": "Staphylococcus aureus", "experiment": "Antibacterial activity against methicillin sensitive Staphylococcus aureus SA113 assessed as increase in membrane permeability at 1 to 4 times MIC incubated for 30 mins by PI staining based fluorescence assay", "type": "functional, organism-based"}, "[12]": {"tested_on": "Staphylococcus aureus", "experiment": "Antibacterial activity against methicillin sensitive Staphylococcus aureus SA113 by broth microdilution method", "type": "functional"}, "[13]": {"tested_on": "Staphylococcus aureus", "experiment": "Antibacterial activity against methicillin sensitive Staphylococcus aureus SA113 assessed as fold increase in MIC in presence of phosphatidylcholine by chequerboard microdilution assay", "type": "functional"}, "[14]": {"tested_on": "Staphylococcus aureus", "experiment": "Synergistic bactericidal activity against Staphylococcus aureus USA300 assessed as persister cells killing by measuring log reduction in bacterial count at 8 times MIC measured after 72 hrs in presence of daptomycin", "type": "functional"}, "[15]": {"tested_on": "Staphylococcus aureus", "experiment": "Antibacterial activity against methicillin sensitive Staphylococcus aureus SA113 in presence of oleic acid", "type": "functional, organism-based"}, "[16]": {"experiment": "Toxicity in BALB/c mouse assessed as change in BUN level at 50 mg/kg, ip measured after 1 to 3 days", "type": "organism-based", "details": "in vivo, time 1-3 day"}, "[17]": {"tested_on": "Staphylococcus aureus", "experiment": "Synergistic antibacterial activity against methicillin resistant Staphylococcus aureus USA300 in presence of linezolid", "type": "functional, organism-based"}, "[18]": {"tested_on": "Enterococcus faecium", "experiment": "Bactericidal activity against Enterococcus faecium EFM64", "type": "functional"}, "[19]": {"tested_on": "Staphylococcus epidermidis", "experiment": "Inhibition of biofilm formation in Staphylococcus epidermidis SE1457 at 1/2 MIC incubated for 16 hrs by SEM analysis", "type": "functional, organism-based"}, "[20]": {"tested_on": "Staphylococcus aureus", "experiment": "Downregulation of pflA expression level in methicillin sensitive Staphylococcus aureus SA113 at 1/2 MIC incubated for 2 hrs by MS/MS analysis", "type": "functional"}, "[21]": {"tested_on": "Staphylococcus aureus", "experiment": "Inhibition of biofilm formation in methicillin resistant Staphylococcus aureus YUSA145 at 1/2 MIC incubated for 16 hrs by SEM analysis", "type": "functional, organism-based"}, "[22]": {"tested_on": "Staphylococcus aureus", "experiment": "Antibacterial activity against methicillin resistant Staphylococcus aureus […] infected in BALB/c mouse wound model assessed as log reduction in wound bacterial load at 20 mg/kg, ip administered every 12 hrs for 3 times and measured after 48 hrs in presence of DAP", "type": "functional"}, "[23]": {"experiment": "Hemolytic activity against human erythrocytes measured after 1 hr", "type": "toxicity, cell-based, Erythrocyte"}, "[24]": {"experiment": "Toxicity in BALB/c mouse assessed as change in Na+ level at 50 mg/kg, ip measured after 1 to 3 days", "type": "organism-based", "details": "in vivo, time 1-3 day"}, "[25]": {"tested_on": "Staphylococcus epidermidis", "experiment": "Induction of resistance development in Staphylococcus epidermidis SE1457 assessed as fold increase in MIC at 1/2 MIC incubated for 16 hrs after 20 serial passages", "type": "functional"}, "[26]": {"tested_on": "Staphylococcus aureus", "experiment": "Antibacterial activity against methicillin sensitive Staphylococcus aureus SA113 assessed as fold increase in MIC in presence of cardiolipin by chequerboard microdilution assay", "type": "functional"}, "[27]": {"tested_on": "Staphylococcus aureus", "experiment": "Inhibition of bacterial growth in methicillin sensitive Staphylococcus aureus SA113 at MIC concentration measured upto 16 hrs", "type": "functional"}, "[28]": {"experiment": "Binding affinity to biotin-labeled cardiolipin (unknown origin) by biolayer interferometry"}, "[29]": {"tested_on": "Staphylococcus aureus", "experiment": "Antibacterial activity against methicillin sensitive Staphylococcus aureus SA113 assessed as fold increase in MIC in presence of peptidoglycan by chequerboard microdilution assay", "type": "functional"}, "[30]": {"tested_on": "Staphylococcus epidermidis", "experiment": "Synergistic bactericidal activity against Staphylococcus epidermidis SE1457 assessed as planktonic cells killing by measuring log reduction in bacterial count at 8 times MIC measured after 24 hrs in presence of daptomycin", "type": "functional"}, "[31]": {"tested_on": "Escherichia coli", "experiment": "Antibacterial activity against Escherichia coli", "type": "functional, organism-based"}, "[32]": {"tested_on": "Staphylococcus aureus", "experiment": "Inhibition of bacterial growth in methicillin resistant Staphylococcus aureus USA300 at 1/2 MIC concentration measured upto 16 hrs", "type": "functional, organism-based"}, "[33]": {"tested_on": "Staphylococcus aureus", "experiment": "Synergistic antibacterial activity against methicillin resistant Staphylococcus aureus USA300 in presence of vancomycin", "type": "functional, organism-based"}, "[34]": {"tested_on": "Staphylococcus epidermidis", "experiment": "Synergistic bactericidal activity against Staphylococcus epidermidis SE1457 assessed as persister cells killing by measuring log reduction in bacterial count at 8 times MIC measured after 72 hrs in presence of daptomycin", "type": "functional"}, "[35]": {"experiment": "Toxicity in BALB/c mouse assessed as change in K+ level at 50 mg/kg, ip measured after 1 to 3 days", "type": "organism-based", "details": "in vivo, time 1-3 day"}, "[36]": {"tested_on": "Staphylococcus aureus", "experiment": "Antibacterial activity against methicillin resistant Staphylococcus aureus USA300 infected in BALB/c mouse wound model assessed as log reduction in wound bacterial load at 20 mg/kg, ip administered every 12 hrs for 3 times and measured after 48 hrs in presence of DAP", "type": "functional"}, "[37]": {"tested_on": "Staphylococcus aureus", "experiment": "Synergistic antibacterial activity against methicillin resistant Staphylococcus aureus USA300 assessed as fractional inhibitory concentration index in presence of daptomycin", "type": "functional"}, "[38]": {"tested_on": "Staphylococcus aureus", "experiment": "Induction of matured biofilm eradication in methicillin resistant Staphylococcus aureus YUSA145 assessed as log reduction in bacterial count in biofilm at 8 MIC incubated for 48 hrs in presence of daptomycin by agar plate method", "type": "functional"}, "[39]": {"tested_on": "Staphylococcus aureus", "experiment": "Antibacterial activity against methicillin resistant Staphylococcus aureus USA300 infected in BALB/c mouse pneumonia model assessed as increase in mouse survival rate at 20 mg/kg, ip administered every 12 hrs for 3 times and measured after 48 hrs", "type": "functional, organism-based"}}, "note": "Active and inactive are the calls of the source. The rule behind the calls is not given here."}
{"smiles": "O=C(C1=C(O)C(=O)N(c2nnc(SCc3ccccc3Cl)s2)C1c1ccccc1O)c1cc2ccccc2o1", "note": "(stereo unspecified)", "values": [{"measurement": "MBC", "setting": "[1]", "value": 25, "unit": "µM"}, {"measurement": "Activity", "setting": "[2]", "value": "Active"}, {"measurement": "IC50", "setting": "[3]", "value": 19.5, "unit": "µM"}, {"measurement": "Activity", "setting": "[4]", "value": "inactive"}, {"measurement": "CC50 at 24 h", "setting": "[5]", "value": "> 100", "unit": "µM"}, {"measurement": "MIC50", "setting": "[6]", "value": "≥ 50", "unit": "µM"}, {"measurement": "MIC90", "setting": "[6]", "value": "≥ 50", "unit": "µM"}, {"measurement": "log(activity)", "setting": "[7]", "value": 1}, {"measurement": "Activity", "setting": "[8]", "value": "inactive"}, {"measurement": "inhibition (INH)", "setting": "[9]", "value": 100, "unit": "%"}, {"measurement": "Activity", "setting": "[10]", "value": "Active"}, {"measurement": "Activity", "setting": "[11]", "value": "Active"}, {"measurement": "MIC50", "setting": "[12]", "value": "≥ 50", "unit": "µM"}, {"measurement": "MIC90", "setting": "[12]", "value": "≥ 50", "unit": "µM"}, {"measurement": "fold change (FC)", "setting": "[13]", "value": 16}, {"measurement": "log(activity)", "setting": "[14]", "value": 3}, {"measurement": "Activity", "setting": "[15]", "value": "inactive"}, {"measurement": "Activity", "setting": "[16]", "value": "Non-Toxic"}, {"measurement": "Activity", "setting": "[17]", "value": "inactive"}, {"measurement": "MBC", "setting": "[18]", "value": 100, "unit": "µM"}, {"measurement": "inhibition", "setting": "[19]", "value": "Active"}, {"measurement": "Activity", "setting": "[20]", "value": "Active"}, {"measurement": "inhibition", "setting": "[21]", "value": "Active"}, {"measurement": "log(activity)", "setting": "[22]", "value": 3.5}, {"measurement": "HC50 at 1 h", "setting": "[23]", "value": "> 200", "unit": "µM"}, {"measurement": "Activity", "setting": "[24]", "value": "Non-Toxic"}, {"measurement": "Activity", "setting": "[25]", "value": "inactive"}, {"measurement": "fold change (FC)", "setting": "[26]", "value": 16}, {"measurement": "inhibition (INH)", "setting": "[27]", "value": 100, "unit": "%"}, {"measurement": "Kd", "setting": "[28]", "value": 44.1, "unit": "µM"}, {"measurement": "fold change (FC)", "setting": "[29]", "value": 16}, {"measurement": "log(activity)", "setting": "[30]", "value": 4.5}, {"measurement": "Activity", "setting": "[31]", "value": "Active"}, {"measurement": "growth inhibition (GI)", "setting": "[32]", "value": "Active"}, {"measurement": "Activity", "setting": "[33]", "value": "inactive"}, {"measurement": "log(activity)", "setting": "[34]", "value": 3}, {"measurement": "Activity", "setting": "[35]", "value": "Non-Toxic"}, {"measurement": "log(activity)", "setting": "[36]", "value": 3.5}, {"measurement": "fractional inhibitory concentration index (FICI)", "setting": "[37]", "value": "<=0.5"}, {"measurement": "log(activity)", "setting": "[38]", "value": 3}, {"measurement": "Activity", "setting": "[39]", "value": "Active"}]}
